PubChem BioAssay AID270 (DTP/NCI, 2004)
Values joined by “and” are separate entries in the source; they are usually repeats but may differ in a detail not shown here. Equal entries are not always repeated. Results filed as inconclusive are left out.

System: BDF1 mice, s.c. Lewis lung carcinoma, T/C %
Experiment: NCI In Vivo Anticancer Drug Screen. Data for tumor model Lewis Lung Carcinoma (subcutaneous) in B6D2F1 (BDF1) mice
Description: The antitumor activity of compounds was measured in mice bearing transplantable tumors. Survival or tumor size were measured and the results are expressed as the measurement made in the treated group (T) divided by the measurement made in the vehicle treated control group (C). The tumor model used in this assay is Lewis Lung Carcinoma (subcutaneous) in B6D2F1 (BDF1) mice

## O=NN(CCCl)C(=O)N[C@H]1CCCC[C@@H]1Cl
endpoint: median survival time, dose: 9.0 mg/kg/injection, schedule: Q01DX001 (ip), vehicle: Klucel (hydroxypropylcellulose) (HPC), higher = longer survival
  T/C: 112 % of control
endpoint: median survival time, dose: 11.0 mg/kg/injection, schedule: Q01DX001 (ip), vehicle: gum acacia, higher = longer survival
  T/C: 114 % of control
endpoint: median survival time, dose: 17.0 mg/kg/injection, schedule: Q01DX001 (ip), vehicle: gum acacia, higher = longer survival
  T/C: 107 % of control
endpoint: median survival time, dose: 18.0 mg/kg/injection, schedule: Q01DX001 (ip), vehicle: Klucel (hydroxypropylcellulose) (HPC), higher = longer survival
  T/C: 124 % of control
endpoint: median survival time, dose: 25.0 mg/kg/injection, schedule: Q01DX001 (ip), vehicle: gum acacia, higher = longer survival
  T/C: 95 % of control
endpoint: median survival time, dose: 25.0 mg/kg/injection, schedule: Q04DX004 (ip), vehicle: gum acacia, higher = longer survival
  T/C: 172 % of control
endpoint: median survival time, dose: 45.0 mg/kg/injection, schedule: Q07DX002 (ip), vehicle: gum acacia, higher = longer survival
  T/C: 159 % of control
endpoint: median survival time, dose: 72.0 mg/kg/injection, schedule: Q01DX001 (ip), vehicle: Klucel (hydroxypropylcellulose) (HPC), higher = longer survival
  T/C: 122 % of control
endpoint: median tumor weight (est.), dose: 18.0 mg/kg/injection, schedule: Q01DX001 (ip), vehicle: gum acacia, higher = larger tumour
  T/C: 68 % of control
endpoint: median tumor weight (est.), dose: 37.0 mg/kg/injection, schedule: Q01DX001 (ip), vehicle: gum acacia, higher = larger tumour
  T/C: 23 % of control
endpoint: median tumor weight (est.), dose: 55.0 mg/kg/injection, schedule: Q01DX001 (ip), vehicle: gum acacia, higher = larger tumour
  T/C: 7 % of control

## CCOC(N)=O
endpoint: mean tumor weight, dose: 60.0 mg/kg/injection, schedule: Q01DX011 (ip), vehicle: saline, higher = larger tumour
  T/C: 119 % of control
endpoint: mean tumor weight, dose: 100.0 mg/kg/injection, schedule: Q01DX011 (ip), vehicle: saline, higher = larger tumour
  T/C: 90 % of control
endpoint: mean tumor weight, dose: 125.0 mg/kg/injection, schedule: Q01DX011 (ip), vehicle: saline, higher = larger tumour
  T/C: 123 % of control
endpoint: mean tumor weight, dose: 200.0 mg/kg/injection, schedule: Q01DX011 (ip), vehicle: saline, higher = larger tumour
  T/C: 60 % of control and 67 % of control and 69 % of control
endpoint: mean tumor weight, dose: 250.0 mg/kg/injection, schedule: Q01DX011 (ip), vehicle: saline, higher = larger tumour
  T/C: 62 % of control
endpoint: mean tumor weight, dose: 400.0 mg/kg/injection, schedule: Q01DX011 (ip), vehicle: saline, higher = larger tumour
  T/C: 33 % of control and 41 % of control and 56 % of control
endpoint: mean tumor weight, dose: 600.0 mg/kg/injection, schedule: Q01DX011 (ip), vehicle: saline, higher = larger tumour
  T/C: 38 % of control

## Oc1ccccc1/C=N/NC(=S)NC1CC2C=CC1C2 (stereo unspecified)
endpoint: median survival time, dose: 12.5 mg/kg/injection, schedule: Q01DX009 (ip), vehicle: olive oil, sesame oil, peanut oil, higher = longer survival
  T/C: 94 % of control
endpoint: median survival time, dose: 100.0 mg/kg/injection, schedule: Q01DX009 (ip), vehicle: olive oil, sesame oil, peanut oil, higher = longer survival
  T/C: 91 % of control
endpoint: median survival time, dose: 200.0 mg/kg/injection, schedule: Q01DX009 (ip), vehicle: olive oil, sesame oil, peanut oil, higher = longer survival
  T/C: 87 % of control

## O=c1cc(CO)[nH]cc1O
endpoint: mean tumor weight, dose: 25.0 mg/kg/injection, schedule: Q01DX011 (ip), vehicle: methylcellulose (MC), higher = larger tumour
  T/C: 81 % of control
endpoint: mean tumor weight, dose: 50.0 mg/kg/injection, schedule: Q01DX011 (ip), vehicle: methylcellulose (MC), higher = larger tumour
  T/C: 77 % of control
endpoint: mean tumor weight, dose: 100.0 mg/kg/injection, schedule: Q01DX011 (ip), vehicle: methylcellulose (MC), higher = larger tumour
  T/C: 63 % of control
endpoint: mean tumor weight, dose: 500.0 mg/kg/injection, schedule: Q01DX011 (ip), vehicle: methylcellulose (MC), higher = larger tumour
  T/C: 62 % of control
endpoint: mean tumor weight, dose: 600.0 mg/kg/injection, schedule: Q01DX011 (ip), vehicle: methylcellulose (MC), higher = larger tumour
  T/C: 82 % of control
endpoint: mean tumor weight, dose: 700.0 mg/kg/injection, schedule: Q01DX011 (ip), vehicle: methylcellulose (MC), higher = larger tumour
  T/C: 115 % of control

## O=C(O)CCC(=O)Nc1nccs1
endpoint: mean tumor weight, dose: 50.0 mg/kg/injection, schedule: Q01DX011 (ip), vehicle: carboxymethylcellulose (CMC), higher = larger tumour
  T/C: 77 % of control
endpoint: mean tumor weight, dose: 100.0 mg/kg/injection, schedule: Q01DX011 (ip), vehicle: carboxymethylcellulose (CMC), higher = larger tumour
  T/C: 83 % of control
endpoint: mean tumor weight, dose: 200.0 mg/kg/injection, schedule: Q01DX011 (ip), vehicle: carboxymethylcellulose (CMC), higher = larger tumour
  T/C: 68 % of control
endpoint: mean tumor weight, dose: 400.0 mg/kg/injection, schedule: Q01DX011 (ip), vehicle: carboxymethylcellulose (CMC), higher = larger tumour
  T/C: 101 % of control

## C1=CC2(OCCO2)C2CC=CC3(OCCO3)C2C1 (stereo unspecified)
endpoint: median survival time, dose: 6.25 mg/kg/injection, schedule: Q01DX009 (ip), vehicle: Klucel (hydroxypropylcellulose) (HPC), higher = longer survival
  T/C: 88 % of control
endpoint: median survival time, dose: 12.5 mg/kg/injection, schedule: Q01DX009 (ip), vehicle: Klucel (hydroxypropylcellulose) (HPC), higher = longer survival
  T/C: 100 % of control
endpoint: median survival time, dose: 25.0 mg/kg/injection, schedule: Q01DX009 (ip), vehicle: Klucel (hydroxypropylcellulose) (HPC), higher = longer survival
  T/C: 95 % of control and 97 % of control
endpoint: median survival time, dose: 50.0 mg/kg/injection, schedule: Q01DX009 (ip), vehicle: Klucel (hydroxypropylcellulose) (HPC), higher = longer survival
  T/C: 93 % of control
endpoint: median survival time, dose: 100.0 mg/kg/injection, schedule: Q01DX009 (ip), vehicle: Klucel (hydroxypropylcellulose) (HPC), higher = longer survival
  T/C: 106 % of control

## COc1cc(NC(=O)N(CCCl)N=O)cc(OC)c1OC
endpoint: median survival time, dose: 3.12 mg/kg/injection, schedule: Q01DX009 (ip), vehicle: other, higher = longer survival
  T/C: 103 % of control
endpoint: median survival time, dose: 6.25 mg/kg/injection, schedule: Q01DX009 (ip), vehicle: other, higher = longer survival
  T/C: 102 % of control
endpoint: median survival time, dose: 12.5 mg/kg/injection, schedule: Q01DX009 (ip), vehicle: other, higher = longer survival
  T/C: 101 % of control
endpoint: median survival time, dose: 25.0 mg/kg/injection, schedule: Q01DX009 (ip), vehicle: other, higher = longer survival
  T/C: 94 % of control
endpoint: median survival time, dose: 50.0 mg/kg/injection, schedule: Q01DX009 (ip), vehicle: other, higher = longer survival
  T/C: 99 % of control
